According to patent US20210308034A1, “PREBIOTIC COMPOSITIONS AND METHODS FOR MAINTAINING A HEALTHY SKIN MICROBIOTA” (KIMBERLY-CLARK WORLDWIDE, INC., priority 2018, published 2021):
Where a SMILES comes first, the peptide text is derived from it.

Experiments:
Assay type in all cases: cell-based
[1] = system: Corynebacterium jeikum (ATCC 33033); assay: Carbohydrate Screening Test Method (Biolog phenotype microarray), Bacteria Code B; details: for Carbohydrate Screening Results, Bacteria Code B: Commensal, carbon microarray plate, OD 600 nm, 36 hr, 33° C., positive = more than 0.05 OD units above zero, blank cell = not utilized
Description: The screening process was set up to determine which carbohydrate sources promoted commensal and/or pathogenic bacteria as well as to obtain individual and combinations of carbohydrate sources that could serve as microbiota balancing agents that can support or maintain the healthy proportions of commensal skin bacteria of Corynebacterium, Staphylococcus, and Micrococcus. The screening was conducted utilizing Biolog phenotype microarray plates (Hayward, Calif.). Table 1 provides a coded list of the commensal and pathogenic skin bacteria that the carbohydrates were screened against.
(§1) The Bacteria Codes B, D, E, I, and J are commensal bacteria and are shaded in Table 2 for references purposes. The bacteria codes were each placed in a carbon microarray plate and screened through the Carbohydrate Screening Test Method, as described in the Test Methods section herein. If a particular bacteria code utilized a specific carbohydrate source as described in the Carbohydrate Screening Test Method, then the corresponding cell in Table 2 was marked with a Y (short for “Yes”).
To do so, the respective microarray data for the 79 carbohydrate sources was run through the GrowthRates 2.1 program to obtain growth parameters, such as growth rates and maximum yield data as described by the Belingham Research Institute, Hall, B. G., H. Acar and M. Barlow. […] Mol. Biol. Evol. […] The max yield parameters generated were utilized to calculate ratios of tested commensal bacteria. The ratios calculated were compared back to the desired ratios identified above (Corynebacterium to Staphylococcus of 1.3, Corynebacterium to Micrococcus of 1.4, and Staphylococcus to Micrococcus of 1.1).
(§2) As an example of this methodology used to calculate the commensal bacteria ratios and the difference between the calculated ratios and the desired ratios, an example code from Table 3 will be described. […] The max yields were then used to calculate ratios the bacteria would reach in a co-culture.
A passage of the culture was made using a sterile swab and streaked onto two M9*2 agar plates to prepare the incubated culture for the phenotype microarray pate according to Table 4.
(§3) All cultures were harvested and washed before inoculation into the carbon microarray plate (BiOLOG, Hayward Calif.), with Biolog Plates PM1 and PM2 each having a source definition of Carbon. The bacteria on the M9*2 agar was suspended via agitation with an inoculating loop in 1 mL of M9*1 media for collection in a 1.7 mL micro centrifuge tube, as noted in Table 4.

[2] = system: Micrococcus luteus (SK58); assay: Carbohydrate Screening Test Method (Biolog phenotype microarray), Bacteria Code E; details: for Carbohydrate Screening Results, Bacteria Code E: Commensal, carbon microarray plate, OD 600 nm, 36 hr, 33° C., positive = more than 0.05 OD units above zero, blank cell = not utilized
Source text: (§4) After creating desired ratios of various commensal skin bacteria in a healthy skin microbiome, 188 different carbohydrate sources were screened as the next step in determining potential prospects for skin microbiota balancing agents. The screening process was set up to determine which carbohydrate sources promoted commensal and/or pathogenic bacteria as well as to obtain individual and combinations of carbohydrate sources that could serve as microbiota balancing agents that can support or maintain the healthy proportions of commensal skin bacteria of Corynebacterium, Staphylococcus, and Micrococcus. The screening was conducted utilizing Biolog phenotype microarray plates (Hayward, Calif.). Table 1 provides a coded list of the commensal and pathogenic skin bacteria that the carbohydrates were screened against.
as §1
To do so, the respective microarray data for the 79 carbohydrate sources was run through the GrowthRates 2.1 program to obtain growth parameters, such as growth rates and maximum yield data as described by the Belingham Research Institute, Hall, B. G., H. Acar and M. Barlow. 2014 Growth Rates Made Easy. Mol. Biol. Evol. 31:232-238 doi:10.1093/molbev/mst197. The max yield parameters generated were utilized to calculate ratios of tested commensal bacteria. The ratios calculated were compared back to the desired ratios identified above (Corynebacterium to Staphylococcus of 1.3, Corynebacterium to Micrococcus of 1.4, and Staphylococcus to Micrococcus of 1.1).
as §2

[3] = system: Klebsiella pneumoniae (ATCC BAA-2146); details: Pathogenic; carbon microarray plate, OD 600 nm, 36 hr, 33° C.; positive = more than 0.05 OD units above zero; blank cell = not utilized
Source text: as §4
Table 2 provides the results of screening various carbohydrate sources against the commensal and pathogenic bacteria codes listed in Table 1. The Bacteria Codes B, D, E, I, and J are commensal bacteria and are shaded in Table 2 for references purposes. The bacteria codes were each placed in a carbon microarray plate and screened through the Carbohydrate Screening Test Method, as described in the Test Methods section herein. If a particular bacteria code utilized a specific carbohydrate source as described in the Carbohydrate Screening Test Method, then the corresponding cell in Table 2 was marked with a Y (short for “Yes”). […] Many of the carbohydrate sources were utilized by both commensal and pathogenic bacteria, and as such, would not provide an advantage for selective growth of the commensal bacteria. However, some of the carbohydrate sources were only used by commensal bacteria and were identified for further testing as described herein.
The study employed 10 representative skin bacteria; Staphylococcus epidermidis ATCC 14990, Staphylococcus epidermidis M23864:W2, Staphylococcus aureus ATCC 6538, Staphylococcus aureus ATCC 25904 (Newman), Pseudomonas aeruginosa ATCC 9027, Micrococcus luteus ATCC […], Micrococcus luteus SK58, Klebsiella pneumoniae ATCC BAA-2146, Corynebacterium amycolatum SK46, and Corynebacterium minutissimum ATCC 23348. Cultures were started from freezer bead stocks by placing a single bead into 20 mL of tryptic soy broth (TSB) for all organisms except C. amycolatum SK46 and C. minutissimum ATCC 23348, which were placed into brain heart infusion (BHI) broth. Cultures were grown for about 24 hr at 37° C. except M. luteus ATCC 49732 and M. luteus SK58, which were grown at 30° C. A passage of the culture was made using a sterile swab and streaked onto two M9*2 agar plates to prepare the incubated culture for the phenotype microarray pate according to Table 4. Plates were incubated for about 24 hr at 37° C. except for M. luteus ATCC 49732 and M. luteus SK58, which were incubated at 30° C. for 24 hr.
as §3, with “4. The bacteria was suspended again in M9*1 media, agitated, and collected into the same 1.7 mL microcentrifuge tube used in the previous step. The tube was centrifuged for 5 minutes at 4,000×G, supernatant decanted, the pellet was resuspended in 1 mL of M9*1 media, and vortex. This washing process was repeated for a total of 4 times.” for “4.”
A tenfold dilution in M9*1 media was performed using 1 mL of the washed bacterial culture. Of the tenfold dilution 200 μL was placed in an untreated 96-well plate (Falcon, Pasadena Tx.) for an initial optical density (OD) reading at a wavelength of 600 nm. The OD was used to correlate to colony forming units (CFU) per milliliter by using linear regression lines for each organism. […]

O=C1CCC(C(=O)O)O1 (stereo not drawn) [α-Hydroxy Glutaric Acid-γ-Lactone]
Carbohydrate Screening Results, Bacteria Code B [1]: Y | Carbohydrate Screening Results, Bacteria Code E [2]: Y

O=C(O)CCC(=O)C(=O)O [α-Keto-Glutaric Acid]
Carbohydrate Screening Results, Bacteria Code B [1]: Y

CCC(=O)C(=O)O [α-Keto-Butyric Acid]
Carbohydrate Screening Results, Bacteria Code B [1]: Y

CC(O)CO (stereo not drawn) [1,2-Propanediol]
Carbohydrate Screening Results, Bacteria Code B [1]: Y | Carbohydrate Screening Results, Bacteria Code E [2]: Y

N[C@@H](CC(=O)O)C(=O)O [L-Aspartic Acid]
Carbohydrate Screening Results, Bacteria Code B [1]: Y | Carbohydrate Screening Results, Bacteria Code C [3]: Y

C[C@@H](N)C(=O)O [D-Alanine]
max yield ([1]; C. jeikeium, GrowthRates 2.1 on microarray data): 0.157 | Carbohydrate Screening Results, Bacteria Code B [1]: Y | Carbohydrate Screening Results, Bacteria Code E [2]: Y | max yield ([2]; M. luteus SK58, GrowthRates 2.1 on microarray data): 0.098

NCCc1ccccc1 [Phenylethyl-amine]
Carbohydrate Screening Results, Bacteria Code B [1]: Y

O=C1O[C@H]([C@@H](O)CO)[C@@H](O)[C@@H]1O [L-Galactonic Acid-γ-Lactone]
Carbohydrate Screening Results, Bacteria Code B [1]: Y | Carbohydrate Screening Results, Bacteria Code C [3]: Y

O=CC(=O)O [Glyoxylic Acid]
Carbohydrate Screening Results, Bacteria Code B [1]: Y

O=C(O)CC(O)(CC(=O)O)C(=O)O [Citric Acid]
Carbohydrate Screening Results, Bacteria Code B [1]: Y

NC(=O)[C@@H](O)[C@@H](O)[C@H](O)[C@@H](O)C=O [Glucuronamide]
Carbohydrate Screening Results, Bacteria Code B [1]: Y | Carbohydrate Screening Results, Bacteria Code E [2]: Y

COC(=O)[C@@H](C)O [D-Lactic Acid Methyl Ester]
Carbohydrate Screening Results, Bacteria Code C [3]: Y

OC[C@@H](O)[C@H](O)[C@H](O)[C@@H](O)CO [Dulcitol]
Carbohydrate Screening Results, Bacteria Code B [1]: Y | Carbohydrate Screening Results, Bacteria Code E [2]: Y

CCC(O)C(=O)O (stereo not drawn) [α-Hydroxy Butyric Acid]
Carbohydrate Screening Results, Bacteria Code B [1]: Y

OC[C@H]1O[C@H](OC[C@H]2O[C@H](O[C@]3(CO)O[C@H](CO)[C@@H](O)[C@@H]3O)[C@H](O)[C@@H](O)[C@@H]2O)[C@H](O)[C@@H](O)[C@H]1O [D-Raffinose]
Carbohydrate Screening Results, Bacteria Code C [3]: Y

C[C@H](N)C(=O)O [L-Alanine]
Carbohydrate Screening Results, Bacteria Code E [2]: Y

O=C(O)C[C@H](O)C(=O)O [L-Malic Acid]
Carbohydrate Screening Results, Bacteria Code B [1]: Y | Carbohydrate Screening Results, Bacteria Code E [2]: Y

OC[C@H]1O[C@@H](Oc2ccc(O)cc2)[C@H](O)[C@@H](O)[C@@H]1O [Arbutin]
Carbohydrate Screening Results, Bacteria Code C [3]: Y

CC(=O)N[C@H]1[C@@H](O)[C@H](O)[C@@H](CO)O[C@H]1O [N-Acetyl-β-D-Mannosamine]
Carbohydrate Screening Results, Bacteria Code B [1]: Y | Carbohydrate Screening Results, Bacteria Code E [2]: Y

O=CO [Formic Acid]
Carbohydrate Screening Results, Bacteria Code B [1]: Y | Carbohydrate Screening Results, Bacteria Code E [2]: Y

NCC(=O)N[C@@H](CC(=O)O)C(=O)O [Glycyl-L-Aspartic Acid] (H-Gly-Asp-OH)
Carbohydrate Screening Results, Bacteria Code E [2]: Y

O=C(O)CO [Glycolic Acid]
Carbohydrate Screening Results, Bacteria Code B [1]: Y | Carbohydrate Screening Results, Bacteria Code E [2]: Y

N[C@@H](C(=O)O)[C@@H](O)[C@H](O)[C@H](O)CO [D-Glucosaminic Acid]
Carbohydrate Screening Results, Bacteria Code E [2]: Y

O=C(O)C(O)C(O)C(=O)O (stereo not drawn) [m-Tartaric Acid]
Carbohydrate Screening Results, Bacteria Code B [1]: Y

O=C(O)[C@@H](O)[C@H](O)[C@H](O)[C@@H](O)C(=O)O [Mucic Acid]
Carbohydrate Screening Results, Bacteria Code B [1]: Y

CCC(=O)O [Propionic Acid]
Carbohydrate Screening Results, Bacteria Code B [1]: Y | Carbohydrate Screening Results, Bacteria Code E [2]: Y

C[C@H](O)[C@@H](N)C(=O)O [D-Threonine]
Carbohydrate Screening Results, Bacteria Code B [1]: Y | Carbohydrate Screening Results, Bacteria Code E [2]: Y

CC(=O)CC(=O)O [Acetoacetic Acid]
Carbohydrate Screening Results, Bacteria Code B [1]: Y | Carbohydrate Screening Results, Bacteria Code E [2]: Y

C[C@H](N)C(=O)NCC(=O)O [L-Alanyl-Glycine] (H-Ala-Gly-OH)
Carbohydrate Screening Results, Bacteria Code B [1]: Y | Carbohydrate Screening Results, Bacteria Code E [2]: Y

O=C(O)/C=C/C(=O)O [Fumaric Acid]
Carbohydrate Screening Results, Bacteria Code B [1]: Y | Carbohydrate Screening Results, Bacteria Code E [2]: Y

C[C@@H](O)[C@H](N)C(=O)O [L-Threonine]
Carbohydrate Screening Results, Bacteria Code B [1]: Y | Carbohydrate Screening Results, Bacteria Code E [2]: Y

O=C(O)[C@H](O)[C@@H](O)[C@H](O)[C@H](O)CO[C@H]1O[C@H](CO)[C@H](O)[C@H](O)[C@H]1O [Melibionic Acid]
Carbohydrate Screening Results, Bacteria Code C [3]: Y

O=C[C@@H](O)[C@H](O[C@@H]1O[C@H](CO)[C@H](O)[C@H](O)[C@H]1O)[C@H](O)CO [3-0-β-D-Galacto-pyranosyl-D-Arabinose]
Carbohydrate Screening Results, Bacteria Code C [3]: Y

Tween 40
Carbohydrate Screening Results, Bacteria Code B [1]: Y

O=C(O)CC(Br)C(=O)O (stereo not drawn) [Bromo Succinic Acid]
Carbohydrate Screening Results, Bacteria Code B [1]: Y

O=C(O)[C@@H]1CCCN1 [L-Proline]
Carbohydrate Screening Results, Bacteria Code B [1]: Y | Carbohydrate Screening Results, Bacteria Code E [2]: Y

Nc1ncnc2c1ncn2[C@@H]1O[C@H](CO)[C@@H](O)[C@H]1O [Adenosine]
Carbohydrate Screening Results, Bacteria Code B [1]: Y | Carbohydrate Screening Results, Bacteria Code E [2]: Y

O=C(O)Cc1cccc(O)c1 [m-Hydroxy Phenyl Acetic Acid]
Carbohydrate Screening Results, Bacteria Code C [3]: Y

O=C(O)CC(CC(=O)O)C(=O)O [Tricarballylic Acid]
Carbohydrate Screening Results, Bacteria Code E [2]: Y

NCC(=O)N[C@@H](CCC(=O)O)C(=O)O [Glycyl-L-Glutamic Acid] (H-Gly-Glu-OH)
Carbohydrate Screening Results, Bacteria Code E [2]: Y

N[C@H](CC(=O)O)C(=O)O [D-Aspartic Acid]
Carbohydrate Screening Results, Bacteria Code B [1]: Y | Carbohydrate Screening Results, Bacteria Code E [2]: Y
